In ChEMBL document CHEMBL5137015, “Design, synthesis, and evaluation of a novel series of mono-indolylbenzoquinones derivatives for the potential treatment of breast cancer” (Eur J Med Chem, 2022):
The source made the active and inactive calls. No cut-off for these calls is given here.

Experiments:
[1] = Toxicity in Balb/c mouse xenografted with mouse 4T1 cells assessed as spleen lesions at 200 mg/kg administered topically over the tumor surface every two days for 14 days in the presence of cyanoacrylate by H&E staining based histopathological analysis; format: organism-based; settings: in vivo, topical_or_ocular, 336 h, route top, time 14 day
[2] = Drug metabolism in Balb/c mouse kidney implanted with mouse 4T1 cells assessed as 2-methyl hydroxylation of parent compound causing metabolite formation by LC-MS analysis; format: ADME, tissue-based
[3] = Toxicity in Balb/c mouse implanted with mouse 4T1 cells assessed as lung lesions at 50 mg/kg, ip administered every two days for 14 days by H&E staining based histopathological analysis; format: organism-based; settings: in vivo, 336 h, time 14 day
4T1 [4] = assay: Antitumor activity against mouse 4T1 cells implanted in Balb/c mouse assessed as tumor growth inhibition at 50 mg/kg administered intratumorally every four days for 14 days in the presence of liquid cyanoacrylate relative to control; format: functional; settings: 4T1, 336 h, route it(Intratumoral), time 14 day, read-out: TGI
[5] = Toxicity in Balb/c mouse xenografted with mouse 4T1 cells assessed as liver lesions at 200 mg/kg administered topically over the tumor surface every two days for 14 days in the presence of cyanoacrylate by H&E staining based histopathological analysis; format: organism-based; settings: in vivo, topical_or_ocular, 336 h, route top, time 14 day
MDA-MB-231 [6] = assay: Induction of apoptosis in human MDA-MB-231 cells assessed as reduction in cell volume at 1 uM incubated for 24 hrs by transmission electron microscopic analysis; format: functional, cell-based
MDA-MB-231 [7] = assay: Induction of cell cycle arrest in human MDA-MB-231 cells assessed as increase in G2 phase cells at 10 uM incubated for 24 hrs by PI staining based flow cytometric analysis (reference value: 8.95%); format: functional
MDA-MB-231 [8] = assay: Induction of ROS production in human MDA-MB-231 cells assessed as increase in fluorescence intensity at 1 uM incubated for 24 hrs by DCFH-DA staining based fluorescence analysis; format: functional, cell-based
4T1 [9] = assay: Antitumor activity against mouse 4T1 cells xenografted in Balb/c mouse assessed as tumor growth inhibition at 200 mg/kg administered topically over the tumor surface every two days for 14 days in the presence of cyanoacrylate relative to control; format: functional; settings: 4T1, 336 h, route top, time 14 day, read-out: TGI
4T1 [10] = assay: Antitumor activity against mouse 4T1 cells implanted in Balb/c mouse assessed as TUNEL positive cells at 50 mg/kg administered intratumorally every four days for 14 days by TUNEL staining analysis (reference value: 6.55%); format: functional; settings: route it(Intratumoral), time 14 day
MDA-MB-231 [11] = assay: Induction of cell cycle arrest in human MDA-MB-231 cells assessed as increase in S phase cells at 10 uM incubated for 24 hrs by PI staining based flow cytometric analysis (reference value: 16.61%); format: functional
[12] = Toxicity in Balb/c mouse implanted with mouse 4T1 cells assessed as liver lesions at 50 mg/kg administered intratumorally every four days for 14 days by H&E staining based histopathological analysis; format: organism-based; settings: in vivo, other, 336 h, route it(Intratumoral), time 14 day
MDA-MB-231 [13] = assay: Induction of apoptosis in human MDA-MB-231 cells assessed as increase in cytoplasmic vacuoles at 1 uM incubated for 24 hrs by transmission electron microscopic analysis; format: functional, cell-based
MDA-MB-231 [14] = assay: Induction of apoptosis in human MDA-MB-231 cells assessed as increase in pro-caspase 3 level at 100 nM incubated for 48 hrs; format: functional, cell-based
[15] = Acute toxicity in mouse assessed as lethal dose measured over 14 days; settings: in vivo, 336 h, time 14 day
[16] = Toxicity in Balb/c mouse implanted with mouse 4T1 cells assessed as liver lesions at 50 mg/kg administered intratumorally every four days for 14 days in the presence of liquid cyanoacrylate by H&E staining based histopathological analysis; format: organism-based; settings: in vivo, other, 336 h, route it(Intratumoral), time 14 day
[17] = Toxicity in Balb/c mouse xenografted with mouse 4T1 cells assessed as heart lesions at 200 mg/kg administered topically over the tumor surface every two days for 14 days in the presence of cyanoacrylate by H&E staining based histopathological analysis; format: organism-based; settings: in vivo, topical_or_ocular, 336 h, route top, time 14 day
4T1 [18] = assay: Antitumor activity against mouse 4T1 cells implanted in Balb/c mouse assessed as TUNEL positive cells at 50 mg/kg, ip administered every two days for 14 days by TUNEL staining analysis (reference value: 6.55%); format: functional; settings: time 14 day
MDA-MB-231 [19] = assay: Induction of apoptosis in human MDA-MB-231 cells assessed as increase in p53 protein expression at 1 uM incubated for 24 hrs by Western blot analysis; format: functional, cell-based
[20] = Toxicity in Balb/c mouse implanted with mouse 4T1 cells assessed as kidney lesions at 50 mg/kg, ip administered every two days for 14 days by H&E staining based histopathological analysis; format: organism-based; settings: in vivo, 336 h, time 14 day
MDA-MB-231 [21] = assay: Induction of apoptosis in human MDA-MB-231 cells assessed as increase in Bcl-2 protein expression at 1 uM incubated for 24 hrs by Western blot analysis; format: functional, cell-based
[22] = Acute toxicity in mouse assessed as animal death at 5000 mg/kg, po; format: organism-based; settings: in vivo
MDA-MB-231 [23] = assay: Induction of apoptosis in human MDA-MB-231 cells assessed as decrease in Bcl-2 expression at 0.5 to 3 times of IC50 concentration by Western blot analysis; format: functional, cell-based
4T1 [24] = assay: Antitumor activity against mouse 4T1 cells implanted in Balb/c mouse assessed as apoptotic rate of dissected tumor cell at 50 mg/kg administered intratumorally every four days for 14 days in the presence of liquid cyanoacrylate by flow cytometric analysis (reference value: 64.83%); format: functional; settings: route it(Intratumoral), time 14 day
4T1 [25] = assay: Antitumor activity against mouse 4T1 cells xenografted in Balb/c mouse assessed as TUNEL positive cells at 200 mg/kg administered topically over the tumor surface every two days for 14 days in the presence of cyanoacrylate by TUNEL staining analysis (reference value: 21.78%); format: functional; settings: route top, time 14 day
[26] = Acute toxicity in mouse assessed as death rate ratio at 378 mg/kg, ip measured over 14 days; format: organism-based; settings: in vivo, 336 h, time 14 day
4T1 [27] = assay: Antitumor activity aginst mouse 4T1 cells implanted in Balb/c mouse assessed as nuclei shrinkage at 50 mg/kg administered intratumorally every four days for 14 days; format: functional, organism-based; settings: route it(Intratumoral), time 14.0 day
4T1 [28] = assay: Antitumor activity against mouse 4T1 cells implanted in Balb/c mouse assessed as TUNEL positive cells at 50 mg/kg administered intratumorally every four days for 14 days in the presence of liquid cyanoacrylate by TUNEL staining analysis; format: functional; settings: route it(Intratumoral), time 14 day
MDA-MB-231 [29] = assay: Induction of apoptosis in human MDA-MB-231 cells assessed as nuclear chromatin condensation at 1 uM incubated for 24 hrs by transmission electron microscopic analysis; format: functional, cell-based
[30] = Toxicity in Balb/c mouse implanted with mouse 4T1 cells assessed as liver lesions at 50 mg/kg, ip administered every two days for 14 days by H&E staining based histopathological analysis; format: organism-based; settings: in vivo, 336 h, time 14 day
MDA-MB-231 [31] = assay: Induction of apoptosis in human MDA-MB-231 cells assessed as increase in Bax protein expression at 1 uM incubated for 24 hrs by Western blot analysis; format: functional, cell-based
MDA-MB-231 [32] = assay: Induction of mitochondrial membrane potential loss in human MDA-MB-231 cells assessed as increase in green fluorescence intensity at 0.1 to 1 uM measured after 24 hrs byJC-1 staining based fluorescence microscopic analysis; format: functional, cell-based; settings: dose 0.1-1 µM
MDA-MB-231 [33] = assay: Induction of apoptosis in human MDA-MB-231 cells assessed as increase in caspase 9 expression at 1 uM incubated for 24 hrs by Western blot analysis; format: functional, cell-based

SMILES: Cc1[nH]c2ccccc2c1C1=C(Cl)C(=O)C(Cl)=C(N2CCOCC2)C1=O
- Activity [1]: Non-Toxic
- Drug metabolism [2]: Metabolite_Detected
- Activity [3]: Non-Toxic
- inhibition in vivo at 50 mg/kg (4T1 [4]): 49.8%
- Activity [5]: Non-Toxic
- Activity (MDA-MB-231 [6]): Active
- Activity (MDA-MB-231 [7]): 55.05%
- Activity (MDA-MB-231 [8]): Active
- inhibition in vivo at 200 mg/kg (4T1 [9]): 38%
- Activity (4T1 [10]): 91.48%
- Activity (MDA-MB-231 [11]): 28.47%
- Activity [12]: Non-Toxic
- Activity (MDA-MB-231 [13]): Active
- Activity (MDA-MB-231 [14]): Active
- LD50 [15]: 374 mg/kg
- Activity [16]: Non-Toxic
- Activity [17]: Non-Toxic
- Activity (4T1 [18]): 19.64%
- Activity (MDA-MB-231 [19]): Active
- Activity [20]: Non-Toxic
- Activity (MDA-MB-231 [21]): Active
- Activity [22]: Non-Toxic
- Activity (MDA-MB-231 [23]): Active
- Activity (4T1 [24]): 76.24%
- Activity (4T1 [25]): 64.71%
- Ratio [26]: 0.5
- Activity (4T1 [27]): Active
- Activity (4T1 [28]): 49.52%
- Activity (MDA-MB-231 [29]): Active
- Activity [30]: Non-Toxic
- Activity (MDA-MB-231 [31]): Active
- Activity (MDA-MB-231 [32]): Active
- Activity (MDA-MB-231 [33]): Active
